Data published in patent US20260184693A1, “INHIBITORS OF SOLUTE CARRIER FAMILY 6A MEMBER 19 (SLC6A19) AND METHODS OF USE THEREOF” (Maze Therapeutics, Inc., priority 2022, published 2026).

Target: T1, human SLC6A19 (Homo sapiens, UniProt Q695T7)
T1 construct: expressed in transfected cells
T1 sequence (Q695T7 1-634): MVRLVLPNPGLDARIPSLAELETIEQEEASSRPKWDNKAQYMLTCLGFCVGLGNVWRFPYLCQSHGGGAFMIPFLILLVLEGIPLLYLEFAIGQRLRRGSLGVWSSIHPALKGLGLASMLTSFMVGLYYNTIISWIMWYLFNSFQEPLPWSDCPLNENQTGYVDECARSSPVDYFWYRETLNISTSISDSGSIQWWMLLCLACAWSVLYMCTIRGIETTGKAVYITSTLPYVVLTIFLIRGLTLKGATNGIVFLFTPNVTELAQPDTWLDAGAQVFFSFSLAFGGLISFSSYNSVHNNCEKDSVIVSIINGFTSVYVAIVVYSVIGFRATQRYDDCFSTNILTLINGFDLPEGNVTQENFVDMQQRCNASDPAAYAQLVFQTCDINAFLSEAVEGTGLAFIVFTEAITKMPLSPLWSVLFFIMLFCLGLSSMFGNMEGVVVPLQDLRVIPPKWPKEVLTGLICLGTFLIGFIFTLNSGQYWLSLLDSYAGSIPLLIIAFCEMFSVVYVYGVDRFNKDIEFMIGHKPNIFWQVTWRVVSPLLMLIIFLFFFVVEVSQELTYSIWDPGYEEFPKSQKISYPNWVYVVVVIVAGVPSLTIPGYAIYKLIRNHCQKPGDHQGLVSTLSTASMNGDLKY
T1 sequence (Q9HBJ8 15-222 partner): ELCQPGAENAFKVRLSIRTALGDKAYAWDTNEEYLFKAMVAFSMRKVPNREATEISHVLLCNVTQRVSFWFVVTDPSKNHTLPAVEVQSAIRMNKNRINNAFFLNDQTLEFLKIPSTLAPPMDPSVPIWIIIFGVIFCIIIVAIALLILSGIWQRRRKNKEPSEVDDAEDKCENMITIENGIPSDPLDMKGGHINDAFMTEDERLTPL
Experiment: Example B2: 13C6,15N-isoleucine uptake, RapidFire mass spectrometry, in CHO cells with doxycycline-inducible expression of human SLC6A19 and TMEM27
Assay type: cell-based
Details: read-out: SLC6A19_RapidFire Uptake Assay IC50
Description: Assay ready vials of CHO cells with doxycycline inducible expression of human SLC6A19 and TMEM27 were thawed, plated in T175 flasks containing DMEM/F12 media, 10% FBS, 100 Penicillin-Streptomycin, 1× UltraGlutamate, 1 mM Sodium Pyruvate, Sodium Bicarbonate (7.5 mL of 7.5% solution in 500 mL media final), […] Blasticidin, 150 µg/mL Hygromycin B Gold, and 500 µg/mL G418, and incubated (humidified, 37° C. with […]) for 48 hours. Media was then removed, flasks were washed with 20 mL of DPBS, and 5 mL of TryμLE™ Express was added to each flask to initiate cell dissociation. After 5 minutes, 10 mL of cell culture media was added to each flask and mixed. The cell suspension was collected and centrifuged for 5 minutes at 200×g. The supernatant was removed, and the pellet was resuspended in 10 mL of cell culture media. Resuspended cells were counted using a Vi-Cell. 30 μL/well (20,000 cells/well) of cell suspension was added to Poly-D-Lysine 384-well black/clear plates. Plates were incubated (humidified, 37° C. with 5% CO2) for 24 hours. To induce expression of human SLC6A19 and TMEM27, 10 μL of assay culture media containing 4 μg/mL doxycycline was added to each well. Assay plates were then incubated (humidified, 37° C. with 5% CO2) overnight. After incubation, the media was removed, and wells were washed 3 times with 40 μL of warmed DPBS. […] All compounds were plated in a duplicate 10-point dilution series that consisted of 2-fold dilutions. The plates were incubated (humidified, 37° C. with 5% CO2) with compound for 20 minutes. Afterwards, 20 μL/well of 2 mM 13C6,15N-1-isoleucine was added to each well and plates were incubated again (humidified, 37° C. with 5% CO2) for another 20 minutes. Assay buffer was then removed, and plates were washed. 70 μL/well of stop solution (75% acetonitrile, 25% HPLC grade water, 250 nM 1-leucine-1-13 C (RapidFire standard)) was added to each well. The plates were sealed and then placed in a −20° C. freezer for 20 minutes. The plates were thawed at room temperature for 20 minutes and then centrifuge for 20 minutes at 3000 rpm. Using an ABSciex API4000 mass spectrometer, processed samples were loaded onto the graphitic carbon SPE-column. The time for aspiration, load/wash, elution and re-equilibration time was 600, 1500, 3000 and 500 milliseconds, respectively. Peak areas were calculated using RapidFire Integrator software.

Structure (SMILES) | IC50 [µM]
CC(C(=O)N1CCC[C@@H](N(C)C(=O)NCc2cc3cc(Cl)ccc3[nH]2)C1)n1cncn1 (stereo partly drawn) [Compound 70, 1-((3R)-1-(2-(1H-1,2,4-triazol-1-yl)propanoyl)piperidin-3-yl)-3-((5-chloro-1H-indol-2-yl)methyl)-1-methylurea] | 3.06
COCC(=O)N1CCC[C@@H](N(C)C(=O)NCc2cc3cc(Cl)ccc3[nH]2)C1 [Compound 15, (R)-3-((5-chloro-1H-indol-2-yl)methyl)-1-(1-(2-methoxyacetyl)piperidin-3-yl)-1-methylurea] | 0.539
CN(C(=O)NCc1cc2cc(Cl)ccc2[nH]1)[C@@H]1CCCN(C(=O)C2CCC2)C1 [Compound 48, (R)-3-((5-chloro-1H-indol-2-yl)methyl)-1-(1-(cyclobutanecarbonyl)piperidin-3-yl)-1-methylurea] | 0.0442
COCc1oncc1C(=O)N1CCC[C@@H](N(C)C(=O)NCc2cc3cc(Cl)ccc3[nH]2)C1 [Compound 90, (R)-3-((5-chloro-1H-indol-2-yl)methyl)-1-(1-(5-(methoxymethyl)isoxazole-4-carbonyl)piperidin-3-yl)-1-methylurea] | 13.5
CN(C(=O)NCc1cc2cc(Cl)ccc2[nH]1)[C@@H]1CCCN(C(=O)c2ccno2)C1 [Compound 6, (R)-3-((5-chloro-1H-indol-2-yl)methyl)-1-(1-(isoxazole-5-carbonyl)piperidin-3-yl)-1-methylurea] | 0.198
Cc1cnoc1C(=O)N1CCC[C@@H](N(C)C(=O)NCc2cc3cc(Cl)ccc3[nH]2)C1 [Compound 36, (R)-3-((5-chloro-1H-indol-2-yl)methyl)-1-methyl-1-(1-(4-methylisoxazole-5-carbonyl)piperidin-3-yl)urea] | 1.57
COC(C)C(=O)N1CCC[C@@H](N(C)C(=O)NCc2cc3cc(Cl)ccc3[nH]2)C1 (stereo partly drawn) [Compound 43, 3-((5-chloro-1H-indol-2-yl)methyl)-1-((3R)-1-(2-methoxypropanoyl)piperidin-3-yl)-1-methylurea] | 6.25
CN(C(=O)NCc1cc2cc(Cl)ccc2[nH]1)[C@@H]1CCCN(C(=O)c2ccc3ocnc3c2)C1 [Compound 72, (R)-1-(1-(benzo[d]oxazole-5-carbonyl)piperidin-3-yl)-3-((5-chloro-1H-indol-2-yl)methyl)-1-methylurea] | 1.37
CN(C(=O)NCc1cc2cc(Cl)ccc2[nH]1)[C@@H]1CCCN(C(=O)c2nccs2)C1 [Compound 9, (R)-3-((5-chloro-1H-indol-2-yl)methyl)-1-methyl-1-(1-(thiazole-2-carbonyl)piperidin-3-yl)urea] | 5.37
CN(C(=O)NCc1cc2cc(Cl)ccc2[nH]1)[C@@H]1CCCN(C(=O)c2cnn(C)c2)C1 [Compound 55, (R)-3-((5-chloro-1H-indol-2-yl)methyl)-1-methyl-1-(1-(1-methyl-1H-pyrazole-4-carbonyl)piperidin-3-yl)urea] | 0.571
CN(C(=O)NCc1cc2cc(Cl)ccc2[nH]1)[C@@H]1CCCN(C(=O)C2CC2(F)F)C1 (stereo partly drawn) [Compound 19, 3-((5-chloro-1H-indol-2-yl)methyl)-1-((3R)-1-(2,2-difluorocyclopropane-1-carbonyl)piperidin-3-yl)-1-methylurea] | 0.484
CN(C(=O)NCc1cc2cc(Cl)ccc2[nH]1)[C@@H]1CCCN(C(=O)c2ccn(C(F)F)n2)C1 [Compound 39, (R)-3-((5-chloro-1H-indol-2-yl)methyl)-1-(1-(1-(difluoromethyl)-1H-pyrazole-3-carbonyl)piperidin-3-yl)-1-methylurea] | 0.231
CN(C(=O)NCc1cc2cc(Cl)ccc2[nH]1)[C@@H]1CCCN(C(=O)c2ncc[nH]2)C1 [Compound 18, (R)-1-(1-(1H-imidazole-2-carbonyl)piperidin-3-yl)-3-((5-chloro-1H-indol-2-yl)methyl)-1-methylurea] | 2.25
Cc1n[nH]nc1C(=O)N1CCC[C@@H](N(C)C(=O)NCc2cc3cc(Cl)ccc3[nH]2)C1 [Compound 25, (R)-3-((5-chloro-1H-indol-2-yl)methyl)-1-methyl-1-(1-(5-methyl-2H-1,2,3-triazole-4-carbonyl)piperidin-3-yl)urea] | 11.6
CCC(=O)N1CCC[C@@H](N(C)C(=O)NCc2cc3cc(Cl)ccc3[nH]2)C1 [Compound 10, (R)-3-((5-chloro-1H-indol-2-yl)methyl)-1-methyl-1-(1-propionylpiperidin-3-yl)urea] | 0.125

Now from value to molecule:

IC50 [µM] | Structure (SMILES)
> 45.4 | CN(C(=O)NCc1cc2cc(Cl)ccc2[nH]1)[C@@H]1CCCN(C(=O)[C@@H]2CC(=O)CN2)C1 [Compound 131, 3-((5-chloro-1H-indol-2-yl)methyl)-1-methyl-1-((R)-1-((S)-4-oxopyrrolidine-2-carbonyl)piperidin-3-yl)urea]
0.0919 | CN(C(=O)NCc1cc2ccccc2[nH]1)[C@@H]1CCCN(c2ccon2)C1 [Compound 150, (R)-3-((1H-indol-2-yl)methyl)-1-(1-(isoxazol-3-yl)piperidin-3-yl)-1-methylurea]
2.79 | CC(=O)N1CCC[C@@H](N(C)C(=O)NCc2cc3cc(C)c(C#N)cc3[nH]2)C1 [Compound 174, (R)-1-(1-acetylpiperidin-3-yl)-3-((6-cyano-5-methyl-1H-indol-2-yl)methyl)-1-methylurea]
> 31 | COCC(N)C(=O)N1CCC[C@@H](N(C)C(=O)NCc2cc3cc(Cl)ccc3[nH]2)C1 (stereo partly drawn) [Compound 132, 3-((5-chloro-1H-indol-2-yl)methyl)-1-methyl-1-((3R)-1-(O-methylseryl)piperidin-3-yl)urea]
3.97 | CC(=O)N1CCC[C@@H](N(C)C(=O)NCc2cc3[nH]ccc3cc2F)C1 [Compound 184, (R)-1-(1-acetylpiperidin-3-yl)-3-((5-fluoro-1H-indol-6-yl)methyl)-1-methylurea]
3.24 | CN(C(=O)NCc1cc2cc(Cl)ccc2[nH]1)[C@@H]1CCCN(C(=O)C2CCOCC2)C1 [Compound 95, (R)-3-((5-chloro-1H-indol-2-yl)methyl)-1-methyl-1-(1-(tetrahydro-2H-pyran-4-carbonyl)piperidin-3-yl)urea]
3.95 | CC(=O)N1CCC[C@@H](N(C)C(=O)NCc2cc3ccc(OCc4cncs4)cc3[nH]2)C1 [Compound 136, (R)-1-(1-acetylpiperidin-3-yl)-1-methyl-3-((6-(thiazol-5-ylmethoxy)-1H-indol-2-yl)methyl)urea]
0.103 | CCN(C(=O)NCc1cc2cc(Cl)c(OC)cc2[nH]1)[C@@H]1CCCN(C(C)=O)C1 [Compound 167, (R)-1-(1-acetylpiperidin-3-yl)-3-((5-chloro-6-methoxy-1H-indol-2-yl)methyl)-1-ethylurea]
0.122 | Cc1cc(N2CCC[C@@H](N(C)C(=O)NCc3cc4cc(Cl)ccc4[nH]3)C2)no1 [Compound 177, (R)-3-((5-chloro-1H-indol-2-yl)methyl)-1-methyl-1-(1-(5-methylisoxazol-3-yl)piperidin-3-yl)urea]
1.21 | COc1cc2[nH]c(CNC(=O)N(C)[C@@H]3CCCN(C(C)=O)C3)cc2cc1C [Compound 179, (R)-1-(1-acetylpiperidin-3-yl)-3-((6-methoxy-5-methyl-1H-indol-2-yl)methyl)-1-methylurea]
1.44 | CN(C(=O)NCc1cc2cc(Cl)ccc2[nH]1)[C@@H]1CCCN(C(=O)C2(C)COC2)C1 [Compound 126, (R)-3-((5-chloro-1H-indol-2-yl)methyl)-1-methyl-1-(1-(3-methyloxetane-3-carbonyl)piperidin-3-yl)urea]
